Source: patent US20220143222A1, “SUBCUTANEOUS AND INTRAMUSCULAR ADMINISTRATION OF PYRAZINE COMPOUNDS” (MediBeacon Inc., priority 2020, published 2022)

Test: Transdermal fluorescence signal at the chest after injection
Format: in vivo, pig
From the text: Juvenile Yorkshire pigs weighing approximately 25 kg were anesthetized, their body temperature stabilized, and an IV port surgically placed. A region approximately half-way along the line between the hip and knee joint was selected as the injection site and prepared by cleaning the skin and removing any exposed hair by shaving the selected area at least twice. Similarly, the site where two Quantum Leap fluorescent sensors (disclosed in U.S. Pat. No. 10,548,521) were to be positioned (chest) was prepared by washing and shaving. After the skin was dry the sensors were attached with commercially available skin adhesive and background skin auto-fluorescence measurements were recorded. After about 20 minutes of background fluorescence collection the subject animal was dosed either intravenously (animal 48019) or subcutaneously (animals 52771, 53701 09802, or 1539) or intramuscularly (09801) with PBS-1× formulated MB-102 at 3.2 mg/kg. Injection of the appropriate volume took place over about a minute. […] At this point glomerular elimination of MB-102 by the kidneys led to a decrease of fluorescence signal over time. Blood samples (1.5 mL) were taken immediately prior to the introduction of MB-102 (0 minutes) and at 15 minute intervals throughout the procedure. Blood was collected in BD vacutainer K2EDTA tubes, spun to plasma and stored at −80° C. until analyzed. Subsequently, the processed plasma samples were thawed, diluted with PBS-1× and analyzed by HPLC or UPLC and the concentration of MB-102 determined using standard analytical techniques. Further details for each animal are provided in the examples that follow.
A sterile Mesoderm needle pack was obtained. The needle array featured five (5), 4 mm×30 gauge (0.30 mm dia) luer-hub needles arranged four (4) in a circular, symmetrical pattern (30 mm diameter) about a central needle and were attached via a distribution channel and a second luer-hub to a primary source syringe (3 mL in total deliverable volume). MB-102 API was formulated as 60 mg/mL of sodium salt in 1×PBS and placed in 5 mL serum cap vials. Immediately prior to dosing, the primary syringe was filled with a slight excess of the required amount of formulated MB-102 to achieve 3.2 mg/kg and the needle cap replaced until the subject animal and fluorescence monitor were ready for the experiment to begin and the injection initiated. Subject pig 52771 was dosed with 1.2 mL of MB-102 formulated in PBS-1× (3.2 mg/kg). […] Subject animal fluorescence was obtained during the entire course of the experiment (8 hrs) and blood samples were collected every 15 minutes, processed and stored at −80° C. Comparison of IV MB-102 plasma concentration versus time and subcutaneous MB-102 (both at 3.2 mg/kg dose) plasma concentration versus time are shown in FIG. 1.
Experimental animal Yorkshire pig, 53701, was subject to subcutaneous (subQ) administration of MB-102 as described in Example 8. […] Plasma sampling was conducted as described in Example 8 and the results (Table 1) are plotted in FIG. 1.
Experimental animal Yorkshire pig, 09802, was subject to subcutaneous (subQ) administration of MB-102 using a single needle in the same protocol as Example 8 but substituting a 2 mL syringe equipped with a single 4 mm×30 g needle. […] Plasma sampling was conducted as described in Example 8 and the results (Table 1) are plotted in FIG. 1.
Experimental animal Yorkshire pig, 09801, was subject to Intramuscular (IM) administration of MB-102 using substantially the same procedure as Example 8, but substituting a 2 mL syringe equipped with a single 13 mm×27 g needle. […] Blood sampling and processing was as described in Example 8 and the results (Table 1) are plotted in FIG. 6.
Experimental animal Yorkshire pig, 1539, was subject to subcutaneous (subQ) administration of MB-102 using a single needle in the same protocol as Example 10. […]

time until fluorescence signal first observed (pig 1539, single needle subcutaneous): after a few minutes
time until fluorescence signal first observed (pig 09801, single needle intramuscular): after a few minutes
time until fluorescence signal first observed (pig 09802, single needle subcutaneous): after a few minutes
time until transdermal fluorescent signal detectable (pig 52771, multi-needle subcutaneous, 3.2 mg/kg): Within a few minutes
time until fluorescence signal first observed (pig 53701, multi-needle subcutaneous): after a few minutes
time until fluorescent skin signal at the chest observed (pigs, 3.2 mg/kg IV, subcutaneous or intramuscular, typical): within several minutes post injection
Compound: Nc1nc(C(=O)N[C@H](CO)C(=O)O)c(N)nc1C(=O)N[C@H](CO)C(=O)O [MB-102, 3,6-diamino-2,5-bis{N-[(1R)-1-carboxy-2-hydroxyethyl]carbamoyl}pyrazine]
